{"source": "patent US20190110472A1", "about": "“ACTIVE INGREDIENT COMPOSITIONS COMPRISING N-ALKENOYL-N-ALKYLGLUCAMIDES AND THE USE THEREOF” (Clariant International, Ltd., priority 2017, published 2019)", "key": {"[1]": {"assay": "Dynamic surface tension, bubble pressure method (BP2100 tensiometer, Krüss)", "type": "physicochemical", "settings": "for Dynamic surface tension [mN/m] 20 ms: surface age 20 ms; for Dynamic surface tension [mN/m] 50 ms: surface age 50 ms; for Dynamic surface tension [mN/m] 100 ms: surface age 100 ms; for Dynamic surface tension [mN/m] 200 ms: surface age 200 ms", "procedure": "Dynamic surface tension was determined via the bubble pressure method (BP2100 tensiometer, Krüss). Given a timespan of relevance for the spray application of agrochemicals in aqueous dilution (called the surface age in the bubble pressure method) of 200 milliseconds (ms), the value for dynamic surface tension in [mN/m] correlates with the adhesion on plants that are difficult to wet, such as barley (cereal). A value of 50 mN/m (at 20-21° C.) with respect to water (72.8 mN/m) results in an improvement in the adhesion from “zero adhesion” (0%) to about 50% (Baur P., Pontzen R.; 2007; Basic features of plant surface wettability and deposit formation and the impact of adjuvant; in R. E. Gaskin ed. Proceedings of the 8th International Symposium on Adjuvants for Agrochemicals; Publisher: International Society for Agrochemical Adjuvants (ISAA), Columbus, Ohio, USA)."}, "[2]": {"assay": "Droplet size distribution of spray (Malvern Spraytec, ID(3)12002 injector nozzle, 3 bar)", "type": "physicochemical", "settings": "summary of Table 4, no tankmix partner", "from_the_text": "A Malvern Spraytec “real-time spray sizing system” was used to determine the droplet size distribution. For this purpose, the system (STP5311, Malvern Instruments GmbH, Heidelberg, Germany) was installed in a specially constructed spray cabin, with the option of being able to model real spray applications as carried out in practice with freely adjustable pressure for various hydraulic nozzles and freely adjustable distances (nozzle-target surface). The spray cabin can be darkened and all disruptive parameters can be eliminated. For the measurements, the ID(3)12002 (Lechler) injector nozzles were used. The pressure set was varied, and mean pressure was kept constant at 3 bar for the measurements reported hereinafter. The temperature and relative air humidity varied between 21.5° C. and 29° C. and between 33% and 56% respectively. In each test series, tap water was measured as internal standard. […]\nAs a further measurement parameter, the proportion by volume of the droplets having diameter <210 μm (“Vol 210”) was determined and expressed in relation to the proportion by volume of droplets having diameter <105 μm (“Vol 210 / Vol 105”). In addition, the percentage reduction in the proportion by volume of droplets having diameter <105 μm in the case of use of spray liquids containing the test substances was calculated in comparison to the use of tap water as internal standard (“Red 105”)."}, "apple leaf cuticles": {"tested_on": "apple leaf cuticles", "assay": "Membrane penetration test of metribuzin through isolated apple leaf cuticles", "type": "in vitro ADME", "settings": "Sencor 600 SC, metribuzin 2.25 g/L, 10° C./56% rel. air humidity", "procedure": "The potential of the test substances, which is independent of the surfactant action, to promote foliar absorption of active agrochemical ingredients was determined in membrane penetration tests with apple leaf cuticles using the example of metribuzin. […] Efforts are therefore being made to find additives that promote wetting but only slightly increase the uptake of the active ingredient, such that only a minimum portion of the active ingredient is taken up into the leaf. The plant cuticle is a lipophilic solubility membrane (lipid membrane) without pores or holes, and the results described are also expected for other nonporous lipophilic solubility membranes with these or other electrolyte active ingredients. The principle of the method has been published (e.g. WO-A-2005/194844; Baur, 1997; Baur, Grayson and Schönherr 1999; Baur, Bodelon and Lowe, 2012), and only the specifics and differences in the method are elucidated hereinafter. The leaf cuticles were enzymatically isolated in the manner described in the literature from apple leaves of orchard trees in a commercial stone fruit growing facility near Frankfurt am Main in 2016. The stomata-free cuticles were first dried under air and then installed into stainless steel diffusion cells. After application to the original upper side of the leaf and evaporation of the test liquid, i.e. of the aqueous preparations of the active ingredients without or with the glucamide-containing spray liquids or comparative compositions, the diffusion cells were transferred into thermostatted blocks and charged with aqueous liquid. The water used to make up the aqueous test liquids was local tap water (of known composition). At regular intervals, aliquot samples were taken and the proportion of active ingredient penetrated was determined by HPLC. During the experiment, the temperature in the system (block, diffusion cells, liquids, etc.) and the air humidity above the spray deposit on the cuticle were known exactly and were monitored. […] In each case, the geometric mean values of the penetration for intact membranes at the mean measurement times are given. According to the variant (active ingredient×test additive/formulation), 7-8 repetitions were set up. The coefficient of variation was below 35%, which is a typical biological variability for penetration for numerous plants (Baur, 1997)."}, "indicator plants": {"tested_on": "indicator plants", "assay": "Plant compatibility after application to indicator plants", "type": "in vivo", "settings": "concentrations of 0.1, 0.3, 0.8, 1.0, 1.5, 2 and 3 g/L"}, "[3]": {"assay": "Appearance and stability of spray liquids after 24 h", "type": "physicochemical", "procedure": "The composition of spray liquids A1-A18 is specified hereinafter. These spray liquids are produced by mixing the various test substances in water, and the appearance and stability of the spray liquid were assessed after 24 h.\nThe inventive alkenoylglucamides (A1 to A6) are self-emulsifying in the spray liquid and form cloudy homogeneous emulsions that are stable over 24 h. By contrast, spray liquids comprising non-inventive saturated alkylglucamides (A7-A13) of similar chain length are not phase-stable and flocculate."}}}
{"smiles": "CCC=CCCCCCCCC(=O)N(C)CC(O)C(O)C(O)C(O)CO", "note": "(stereo not drawn) [Dodec-9-enoyl-N-methylglucamide]", "values": [{"measurement": "Lowering of the dynamic surface tension (in words)", "setting": "[1]; summary of Table 2", "result": "particularly large"}, {"measurement": "Dynamic surface tension [mN/m] 20 ms", "setting": "[1]; amount 0.03 % by wt.", "result": 70.0, "unit": "mN/m"}, {"measurement": "Dynamic surface tension [mN/m] 20 ms", "setting": "[1]; amount 0.1 % by wt.", "result": 56.1, "unit": "mN/m"}, {"measurement": "Dynamic surface tension [mN/m] 20 ms", "setting": "[1]; amount 0.3 % by wt.", "result": 44.5, "unit": "mN/m"}, {"measurement": "Dynamic surface tension [mN/m] 50 ms", "setting": "[1]; amount 0.03 % by wt.", "result": 66.1, "unit": "mN/m"}, {"measurement": "Dynamic surface tension [mN/m] 50 ms", "setting": "[1]; amount 0.1 % by wt.", "result": 47.7, "unit": "mN/m"}, {"measurement": "Dynamic surface tension [mN/m] 50 ms", "setting": "[1]; amount 0.3 % by wt.", "result": 38.5, "unit": "mN/m"}, {"measurement": "Dynamic surface tension [mN/m] 100 ms", "setting": "[1]; amount 0.03 % by wt.", "result": 61.9, "unit": "mN/m"}, {"measurement": "Dynamic surface tension [mN/m] 100 ms", "setting": "[1]; amount 0.1 % by wt.", "result": 44.0, "unit": "mN/m"}, {"measurement": "Dynamic surface tension [mN/m] 100 ms", "setting": "[1]; amount 0.3 % by wt.", "result": 36.0, "unit": "mN/m"}, {"measurement": "Dynamic surface tension [mN/m] 200 ms", "setting": "[1]; amount 0.03 % by wt.", "result": 58.6, "unit": "mN/m"}, {"measurement": "Dynamic surface tension [mN/m] 200 ms", "setting": "[1]; amount 0.1 % by wt.", "result": 40.1, "unit": "mN/m"}, {"measurement": "Dynamic surface tension [mN/m] 200 ms", "setting": "[1]; amount 0.3 % by wt.", "result": 33.4, "unit": "mN/m"}, {"measurement": "Effect on fine droplet content (in words)", "setting": "[2]", "result": "distinct reduction in the fine droplet content"}, {"measurement": "Mean penetration for metribuzin after time in % 1 day", "setting": "apple leaf cuticles; test substance 0.05 % by wt.", "result": 2.9, "unit": "%"}, {"measurement": "Mean penetration for metribuzin after time in % 2 days", "setting": "apple leaf cuticles; test substance 0.05 % by wt.", "result": 4.6, "unit": "%"}, {"measurement": "Mean penetration for metribuzin after time in % 1 day", "setting": "apple leaf cuticles; test substance 0.1 % by wt.", "result": 3.9, "unit": "%"}, {"measurement": "Mean penetration for metribuzin after time in % 2 days", "setting": "apple leaf cuticles; test substance 0.1 % by wt.", "result": 6.5, "unit": "%"}, {"measurement": "Mean penetration for metribuzin after time in % 1 day", "setting": "apple leaf cuticles; test substance 0.14 % by wt.", "result": 5.7, "unit": "%"}, {"measurement": "Mean penetration for metribuzin after time in % 2 days", "setting": "apple leaf cuticles; test substance 0.14 % by wt.", "result": 8.6, "unit": "%"}, {"measurement": "Plant compatibility (necroses or other symptoms such as leaf curl-up or deformation)", "setting": "indicator plants", "result": "no necroses or other symptoms"}]}
{"smiles": "CCCCCCCCC(=O)N(C)C[C@H](O)[C@@H](O)[C@H](O)[C@H](O)CO", "note": "[N-methyl-N-nonanoylglucamine]", "values": [{"measurement": "Plant compatibility (necroses or other symptoms such as leaf curl-up or deformation)", "setting": "indicator plants", "result": "no necroses or other symptoms"}]}
{"smiles": "C=CCCCCCCCC(=O)N(C)CC(O)C(O)C(O)C(O)CO", "note": "(stereo not drawn) [dec-9-enoyl-N-methylglucamide]", "values": [{"measurement": "Water solubility in the spray liquid", "setting": "[3]", "result": "completely water-soluble"}, {"measurement": "Appearance", "setting": "[3]; spray liquid in water, assessed after 24 h", "result": "clear transparent spray liquid"}, {"measurement": "Dynamic surface tension [mN/m] 20 ms", "setting": "[1]; amount 0.06 % by wt.", "result": 70.2, "unit": "mN/m"}, {"measurement": "Dynamic surface tension [mN/m] 20 ms", "setting": "[1]; amount 0.125 % by wt.", "result": 66.4, "unit": "mN/m"}, {"measurement": "Dynamic surface tension [mN/m] 20 ms", "setting": "[1]; amount 0.25 % by wt.", "result": 59.7, "unit": "mN/m"}, {"measurement": "Dynamic surface tension [mN/m] 50 ms", "setting": "[1]; amount 0.06 % by wt.", "result": 68.9, "unit": "mN/m"}, {"measurement": "Dynamic surface tension [mN/m] 50 ms", "setting": "[1]; amount 0.125 % by wt.", "result": 63.7, "unit": "mN/m"}, {"measurement": "Dynamic surface tension [mN/m] 50 ms", "setting": "[1]; amount 0.25 % by wt.", "result": 56.6, "unit": "mN/m"}, {"measurement": "Dynamic surface tension [mN/m] 100 ms", "setting": "[1]; amount 0.06 % by wt.", "result": 67.6, "unit": "mN/m"}, {"measurement": "Dynamic surface tension [mN/m] 100 ms", "setting": "[1]; amount 0.125 % by wt.", "result": 61.8, "unit": "mN/m"}, {"measurement": "Dynamic surface tension [mN/m] 100 ms", "setting": "[1]; amount 0.25 % by wt.", "result": 55.5, "unit": "mN/m"}, {"measurement": "Dynamic surface tension [mN/m] 200 ms", "setting": "[1]; amount 0.06 % by wt.", "result": 67.4, "unit": "mN/m"}, {"measurement": "Dynamic surface tension [mN/m] 200 ms", "setting": "[1]; amount 0.125 % by wt.", "result": 61.0, "unit": "mN/m"}, {"measurement": "Dynamic surface tension [mN/m] 200 ms", "setting": "[1]; amount 0.25 % by wt.", "result": 54.1, "unit": "mN/m"}]}
{"smiles": "CCCCCCCCCCCC(=O)N(C)CC(O)C(O)C(O)C(O)CO", "note": "(stereo not drawn) [dodecanoyl-N-methylglucamide]", "values": [{"measurement": "Dynamic surface tension [mN/m] 20 ms", "setting": "[1]; amount 0.03 % by wt.", "result": 70.6, "unit": "mN/m"}, {"measurement": "Dynamic surface tension [mN/m] 20 ms", "setting": "[1]; amount 0.1 % by wt.", "result": 70.0, "unit": "mN/m"}, {"measurement": "Dynamic surface tension [mN/m] 20 ms", "setting": "[1]; amount 0.3 % by wt.", "result": 67.0, "unit": "mN/m"}, {"measurement": "Dynamic surface tension [mN/m] 50 ms", "setting": "[1]; amount 0.03 % by wt.", "result": 67.3, "unit": "mN/m"}, {"measurement": "Dynamic surface tension [mN/m] 50 ms", "setting": "[1]; amount 0.1 % by wt.", "result": 66.8, "unit": "mN/m"}, {"measurement": "Dynamic surface tension [mN/m] 50 ms", "setting": "[1]; amount 0.3 % by wt.", "result": 61.9, "unit": "mN/m"}, {"measurement": "Dynamic surface tension [mN/m] 100 ms", "setting": "[1]; amount 0.03 % by wt.", "result": 63.0, "unit": "mN/m"}, {"measurement": "Dynamic surface tension [mN/m] 100 ms", "setting": "[1]; amount 0.1 % by wt.", "result": 60.1, "unit": "mN/m"}, {"measurement": "Dynamic surface tension [mN/m] 100 ms", "setting": "[1]; amount 0.3 % by wt.", "result": 58.8, "unit": "mN/m"}, {"measurement": "Dynamic surface tension [mN/m] 200 ms", "setting": "[1]; amount 0.03 % by wt.", "result": 57.9, "unit": "mN/m"}, {"measurement": "Dynamic surface tension [mN/m] 200 ms", "setting": "[1]; amount 0.1 % by wt.", "result": 51.4, "unit": "mN/m"}, {"measurement": "Dynamic surface tension [mN/m] 200 ms", "setting": "[1]; amount 0.3 % by wt.", "result": 48.7, "unit": "mN/m"}]}
